From patent US20090099167A1, “Organic compounds” (Novartis Institutes for Biomedical Research, priority 2004, published 2009)

biological target: T1, c-Abl kinase (Homo sapiens, UniProt P00519); assay: c-Abl protein-tyrosine kinase filter binding assay; format: biochemical; details: Table 4; read-out: c-abl, activity (IC50 for kinase inhibition)
T1 construct: The His-tagged kinase domain of c-Abl is cloned and expressed in the baculovirus/Sf9 system; His; made in house; host or cells: Sf9 (baculovirus)
T1 sequence (P00519 242-493 limits assumed): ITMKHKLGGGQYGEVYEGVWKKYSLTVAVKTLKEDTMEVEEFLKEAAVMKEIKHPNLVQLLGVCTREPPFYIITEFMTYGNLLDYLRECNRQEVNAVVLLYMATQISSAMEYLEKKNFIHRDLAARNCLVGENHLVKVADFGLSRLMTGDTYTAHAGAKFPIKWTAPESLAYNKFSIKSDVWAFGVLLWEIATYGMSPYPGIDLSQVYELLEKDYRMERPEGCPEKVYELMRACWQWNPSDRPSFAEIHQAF
Procedure: The His-tagged kinase domain of c-Abl is cloned and expressed in the baculovirus/Sf9 system as described by Bhat et al. in J. Biol. Chem. 1997; 272:16170-16175. A protein of 37 kD (c-Abl kinase) is purified by a two-step procedure over a Cobalt metal chelate column followed by an anion exchange column with a yield of 1-2 mg/L of Sf9 cells (Bhat et al., reference cited). The purity of the c-Abl kinase is >90% as judged by SDS-PAGE after Coomassie blue staining. The assay contains (total volume of 30 μL): c-Abl kinase (50 ng), 20 mM Tris.HCl, pH 7.5, 10 mM MgCl2, 10 μM Na3VO4, 1 mM DTT and 0.06 μCi/assay [γ^33 P]-ATP (5 μM ATP) using 30 μg/mL poly-Ala,Glu,Lys,Tyr-6:2:5:1 (Poly-AEKY, Sigma P1152) in the presence of 1% DMSO. Reactions are terminated by adding 10 μL of 250 mM EDTA and 30 μL of the reaction mixture is transferred onto Immobilon-PVDF membrane (Millipore, Bedford, Mass., USA) previously soaked for 5 min with methanol, rinsed with water, then soaked for 5 min with 0.5% H3PO4 and mounted on vacuum manifold with disconnected vacuum source. After spotting all samples, vacuum is connected and each well rinsed with 200 μL 0.5% H3PO4. Membranes are removed and washed on a shaker with 0.5% H3PO4 (4 times) and once with ethanol. Membranes are counted after drying at ambient temperature, mounting in Packard TopCount 96-well frame, and addition of 10 μL/well of Microscint™ (Packard).

Which IC50 does the source give for `COc1ccccc1-c1cnn2c(N)c(-c3cccc(O)c3)cnc12` [Example 48, 3-[7-Amino-3-(2-methoxy-phenyl)-pyrazolo[1,5-a]pyrimidin-6-yl]-phenol] here?
The IC50 was < 10000 nM.

How did the IC50 turn out when `COc1cccc(-c2cnn3c(N)c(-c4cccc(O)c4)cnc23)c1` [Example 60, 3-[7-Amino-3-(3-methoxy-phenyl)-pyrazolo[1,5-a]pyrimidin-6-yl]-phenol] was run?
The IC50 was < 10000 nM.

same assay, conditions: Table 5; read-out: C-abl, IC50 class

Which IC50 does the source give for `COc1cc(N2CCN(C)CC2)ccc1-c1cnn2c(N)c(-c3cccc(Cl)c3)c(C)nc12` [Example 75, 6-(3-Chloro-phenyl)-3-[2-methoxy-4-(4-methyl-piperazin-1-yl)-phenyl]-5-methyl-pyrazolo[1,5-a]pyrimidin-7-ylamine] here?
The IC50 was < 1000 nM.

`Cc1nc2c(-c3ccc(N4CCN(C)CC4)cc3)cnn2c(N)c1-c1ccc(F)cc1` [Example 79, 6-(4-Fluoro-phenyl)-5-methyl-3-[4-(4-methyl-piperazin-1-yl)-phenyl]-pyrazolo[1,5-a]pyrimidin-7-ylamine] was tested. Which IC50 did it give?
Its IC50 is < 1000 nM.

Which IC50 does the source give for `Cc1nc2c(-c3cccc(N4CCN(C5CCN(C)CC5)CC4)c3)cnn2c(N)c1-c1cccc(Cl)c1` [Example 81, 6-(3-Chloro-phenyl)-5-methyl-3-{3-[4-(1-methyl-piperidin-4-yl)-piperazin-1-yl]-phenyl}-pyrazolo[1,5-a]pyrimidin-7-ylamine] here?
The IC50 was < 1000 nM.

Which IC50 does the source give for `Cc1nc2c(-c3cccc(N4CCN(C)CC4)c3)cnn2c(N)c1-c1ccc(F)c(Cl)c1` [Example 82, 6-(3-Chloro-4-fluoro-phenyl)-5-methyl-3-[3-(4-methyl-piperazin-1-yl)-phenyl]pyrazolo[1,5-a]pyrimidin-7-ylamine] here?
The IC50 was < 1000 nM.

How did the IC50 turn out when `Cc1nc2c(-c3cccc(N4CCN(C)CC4)c3)cnn2c(N)c1-c1cccc(Br)c1` [Example 84, 6-(3-Bromo-phenyl)-5-methyl-3-[3-(4-methyl-piperazin-1-yl)-phenyl]-pyrazolo[1,5-a]pyrimidin-7-ylamine] was run?
The IC50 was < 1000 nM.

How did the IC50 turn out when `CN1CCN(c2cccc(-c3cnn4c(N)c(Cc5cccc(Br)c5)cnc34)c2)CC1` [Example 85, 6-(3-Bromo-benzyl)-3-[3-(4-methyl-piperazin-1-yl)-phenyl]pyrazolo[1,5-a]pyrimidin-7-ylamine] was run?
Its IC50 is < 1000 nM.

Which IC50 does the source give for `CN1CCN(c2cccc(-c3cnn4c(N)c(-c5cccc(Br)c5)cnc34)c2)CC1` [Example 86, 6-(3-Bromo-phenyl)-3-[3-(4-methyl-piperazin-1-yl)-phenyl]-pyrazolo[1,5-a]pyrimidin-7-ylamine] here?
The IC50 was < 1000 nM.

`Cc1nc2c(-c3cccc(N4CCOCC4)c3)cnn2c(N)c1-c1cccc(Cl)c1` [Example 87, 6-(3-Chloro-phenyl)-5-methyl-3-(3-morpholin-4-yl-phenyl)-pyrazolo[1,5-a]pyrimidin-7-ylamine] was tested. Which IC50 did it give?
Its IC50 is < 1000 nM.

`Cc1nc2c(-c3cccc(N4C[C@@H](C)O[C@@H](C)C4)c3)cnn2c(N)c1-c1cccc(Cl)c1` [Example 89, 6-(3-Chloro-phenyl)-3-[3-((2R,6S)-2,6-dimethyl-morpholin-4-yl)-phenyl]-5-methyl-pyrazolo[1,5-a]pyrimidin-7-ylamine] was tested. Which IC50 did it give?
The IC50 was < 1000 nM.

Which IC50 does the source give for `CN1CCN(c2cccc(-c3cnn4c(N)c(Cc5ccccc5)cnc34)c2)CC1` [Example 91, 6-Benzyl-3-[3-(4-methyl-piperazin-1-yl)-phenyl]-pyrazolo[1,5-a]pyrimidin-7-ylamine] here?
Its IC50 is < 1000 nM.

For `COc1ccc(-c2cnn3c(N)c(-c4cccc(Cl)c4)c(C)nc23)cc1OC` [Example 93, 6-(3-Chloro-phenyl)-3-(3,4-dimethoxy-phenyl)-5-methyl-pyrazolo[1,5-a]pyrimidin-7-ylamine], which IC50 is on record?
The IC50 was < 1000 nM.

For `COc1ccc(-c2cnn3c(N)c(-c4ccc(F)c(Cl)c4)c(C)nc23)cc1OC` [Example 94, 6-(3-Chloro-4-fluoro-phenyl)-3-(3,4-dimethoxy-phenyl)-5-methyl-pyrazolo[1,5-a]pyrimidin-7-ylamine], which IC50 is on record?
The IC50 was > 10000 nM.

Which IC50 does the source give for `COc1ccc(-c2cnn3c(N)c(-c4ccc(F)c(Cl)c4)c(C)nc23)cc1` [Example 95, 6-(3-Chloro-4-fluoro-phenyl)-3-(4-methoxy-phenyl)-5-methyl-pyrazolo[1,5-a]pyrimidin-7-ylamine] here?
The IC50 was < 1000 nM.

How did the IC50 turn out when `COc1ccc(-c2cnn3c(N)c(-c4ccc(F)cc4)c(C)nc23)cc1` [Example 96, 6-(4-Fluoro-phenyl)-3-(4-methoxy-phenyl)-5-methyl-pyrazolo[1,5-a]pyrimidin-7-ylamine] was run?
The IC50 was < 1000 nM.

How did the IC50 turn out when `Cc1nc2c(-c3cccc(N4CCN(CCO)CC4)c3)cnn2c(N)c1-c1ccc(F)cc1` [Example 97, 2-(4-{3-[7-Amino-6-(4-fluoro-phenyl)-5-methyl-pyrazolo[1,5-a]pyrimidin-3-yl]-phenyl}-piperazin-1-yl)-ethanol] was run?
The IC50 was < 1000 nM.

Which IC50 does the source give for `Cc1nc2c(-c3cccc(N4CCN(C)CC4)c3)cnn2c(N)c1-c1ccc(F)c(F)c1` [Example 98, 6-(3,4-Difluoro-phenyl)-5-methyl-3-[3-(4-methyl-piperazin-1-yl)-phenyl]-pyrazolo[1,5-a]pyrimidin-7-ylamine] here?
Its IC50 is < 1000 nM.

`COc1ccc(-c2cnn3c(N)c(-c4ccc(F)c(F)c4)c(C)nc23)cc1OC` [Example 99, 6-(3,4-Difluoro-phenyl)-3-(3,4-dimethoxy-phenyl)-5-methyl-pyrazolo[1,5-a]pyrimidin-7-ylamine] was tested. Which IC50 did it give?
Its IC50 is < 1000 nM.

How did the IC50 turn out when `Cc1nc2c(-c3cccc(N4CCN(CCO)CC4)c3)cnn2c(N)c1-c1ccc(F)c(Cl)c1` [Example 100, 2-(4-{3-[7-Amino-6-(3-chloro-4-fluoro-phenyl)-5-methyl-pyrazolo[1,5-a]pyrimidin-3-yl]-phenyl}-piperazin-1-yl)-ethanol] was run?
Its IC50 is < 1000 nM.

How did the IC50 turn out when `Cc1nc2c(-c3cccc(N4CCN(CCO)CC4)c3)cnn2c(N)c1-c1ccc(F)c(F)c1` [Example 101, 2-(4-{3-[7-Amino-6-(3,4-difluoro-phenyl)-5-methyl-pyrazolo[1,5-a]pyrimidin-3-yl]-phenyl}-piperazin-1-yl)-ethanol] was run?
Its IC50 is < 1000 nM.

How did the IC50 turn out when `Cc1nc2c(-c3cccc(N4CCC(N5CCCC5)CC4)c3)cnn2c(N)c1-c1cccc(Cl)c1` [Example 102, 6-(3-Chloro-phenyl)-5-methyl-3-[3-(4-pyrrolidin-1-yl-piperidin-1-yl)-phenyl]-pyrazolo[1,5-a]pyrimidin-7-ylamine] was run?
Its IC50 is < 1000 nM.

How did the IC50 turn out when `Cc1nc2c(-c3cccc(N4CCC(N5CCCC5)CC4)c3)cnn2c(N)c1-c1ccc(F)cc1` [Example 103, 6-(4-Fluoro-phenyl)-5-methyl-3-[3-(4-pyrrolidin-1-yl-piperidin-1-yl)-phenyl]-pyrazolo[1,5-a]pyrimidin-7-ylamine] was run?
The IC50 was < 1000 nM.

For `Cc1nc2c(-c3cccc(N4CC[N+](C)([O-])CC4)c3)cnn2c(N)c1-c1ccc(F)cc1` [Example 106, 6-(4-Fluoro-phenyl)-5-methyl-3-[3-(4-methyl-4-oxy-piperazin-1-yl)-phenyl]-pyrazolo[1,5-a]pyrimidin-7-ylamine], which IC50 is on record?
Its IC50 is < 1000 nM.

With `Cc1nc2c(-c3cccc([N+]4([O-])CC[N+](C)([O-])CC4)c3)cnn2c(N)c1-c1ccc(F)cc1` (stereo not shown) [Example 107, 6-(4-Fluoro-phenyl)-5-methyl-3-[3-(4-methyl-1,4-dioxy-piperazin-1-yl)-phenyl]-pyrazolo[1,5-a]pyrimidin-7-ylamine] as the compound, how does the IC50 read?
The IC50 was < 1000 nM.
